Experimental data from patent US9186361B2, “Compounds and compositions for the treatment of parasitic diseases” (Novartis AG, priority 2013, dated 2015).

Assays:
[1] = system: Trypanosoma brucei Lister 427 strain; assay: Assay for proliferation of kinetoplastid parasite Trypanosoma brucei (Cell Titer Glo); format: cell-based; settings: bloodstream form, 48 hours, read-out: T. brucei EC50
Description: The proliferation is quantified by the addition of Cell Titer Glo (Promega®) a luminescent cell viability assay that measures the number of viable cells in culture based on the quantification of cellular ATP amount, which is an indicator of metabolically active cells. The following assay illustrates the invention without in any way limiting the scope of the invention. This parasite proliferation assay measures the increase in parasite growth using an assay that measures ATP activity, Cell Titer Glo®.
Trypanosoma brucei Lister 427 strain is grown in HMI-9 Trypanosome media for T. brucei bloodstream form. 30 μl of HMI-9 media is dispensed into 384 well assay plates. 200 nL of compounds of the invention (in DMSO), including anti-trypanosome controls (Pentamidine and suramin), are then transferred into the assay plates, as well as DMSO alone to serve as a negative control for inhibition. Then 25 μl of a suspension of T. brucei culture in HMI-9 media is dispensed into the assay plates. The final concentration of parasites in culture corresponds to 1.7% of 0.5 uM ATP activity with Cell Titer Glo® in HMI-9 media. The plates are placed in a 37° C. incubator for 48 hours in an atmospheric environment containing 5% CO2. 40 μl of Cell Titer Glo® is dispensed into the plates. The plates are then read for luminescence. The percentage inhibition of 50%, EC50, is calculated for each compound.

[2] = system: Leishmania donovani axenic amastigote parasites; assay: Assay for Leishmania proliferation in vitro (axenic amastigotes, Cell TiterGlo); format: cell-based; settings: 48 h, 2 day incubation, read-out: L. donovani amastigotes EC50
In short: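 L. donovani axenic amastigotes (9600 per well) are cultured with compound for 2 days at 37° C, 5% CO2 in RPMI-based medium at pH 5.5. Viability is read by CellTiterGlo luminescence, and EC50 is calculated.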

[3] = system: L. donovani HU3 strain in mouse peritoneal macrophages; assay: Proliferation of L. donovani in mouse peritoneal macrophages (SybrGreen, high-content imaging); format: cell-based; settings: Leishmania donovani, Peritoneal macrophage, 120 h; infected mouse peritoneal macrophages, 5 days; read-out: L. donavani Macrophage EC50
In short: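 Peritoneal macrophages from uninfected BALB/c mice were infected for 24 h with spleen-derived amastigotes (9-11 week infected mice), then exposed to compound for 5 days at 37° C. Fixed cells stained with SybrGreen and parasite nuclei counted by high-content imaging; EC50 calculated from inhibition.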

[4] = system: Trypanosoma cruzi amastigotes cultured in 3T3 fibroblast cells; assay: Assay for proliferation of kinetoplastid parasite Trypanosoma cruzi (beta-galactosidase/CPRG readout); format: cell-based; settings: NIH3T3, 144 h, Tulahuen strain in 3T3 cells, 6 day incubation, read-out: T cruzi EC50
[5] = cited from earlier work

Structure (SMILES)	EC50 [1]	EC50 [2]	EC50 [3]	EC50 [4]	reactive encephalopathy cases that result in death ([5]; of the encephalopathy cases)	patients who developed reactive encephalopathy ([5]; patients injected with the drug)
O=C(Nc1ccc(Cl)c(-c2nc3ncc(NC(=O)C4(C(F)(F)F)CCC4)cc3[nH]2)c1)c1ccc(F)o1 [Example 71, N-[4-chloro-3-(6-{[1-(trifluoromethyl)cyclobutane]amido}-1H-imidazo[4,5-b]pyridin-2-yl)phenyl]-5-fluorofuran-2-carboxamide]	30 nM	1.4 µM	263 nM	153 nM		
O=C(CCN1CCOCC1)Nc1cnc2nc(-c3cc(NC(=O)c4ccc(F)o4)ccc3Cl)[nH]c2c1 [Example 72, N-(4-chloro-3-{6-[3-(morpholin-4-yl)propanamido]-1H-imidazo[4,5-b]pyridin-2-yl}phenyl)-5-fluorofuran-2-carboxamide]	5360 nM	> 25 µM	34100 nM	> 20000 nM		
CC(C)OC(=O)Nc1cnc2nc(-c3cccc(NC(=O)c4ccc(F)o4)c3)[nH]c2c1 [Example 78, propan-2-yl N-{2-[3-(5-fluorofuran-2-amido)phenyl]-1H-imidazo[4,5-b]pyridin-6-yl}carbamate]	200 nM	4.7 µM	1390 nM	1440 nM		
Nc1nc(N)nc(Nc2ccc([As]3SCC(CO)S3)cc2)n1 (centres unmarked) [Melarsoprol]					10-70%	3-10%
